Legend:
Assay type in all cases: in vivo
[1] = tested on: barnyardgrass (Echinochloa crus-galli); experiment: Test A preemergence soil spray, visual injury rating 0-100; settings: 10 days
In short: (§1)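 Plants were grown in a loam soil-sand blend and treated with test chemical in a non-phytotoxic solvent mixture containing surfactant, either sprayed on soil preemergence or applied postemergence to 2-10 cm plants. After 10 days in a greenhouse, injury was scored visually against untreated controls, 0 meaning no effect and 100 complete control.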

[2] = tested on: blackgrass (Alopecurus myosuroides); experiment: as above; settings: 10 days
In short: as §1

corn (Zea mays) [3] = experiment: as above; settings: 10 days
In short: as §1

[4] = tested on: green foxtail (Setaria viridis); experiment: as above; settings: 10 days
In short: as §1

kochia (Bassia scoparia) [5] = experiment: as above; settings: 16 g ai/ha, 0 to 100 scale, 10 days
In short: as §1

[6] = tested on: oat, wild (wild oat, Avena fatua); experiment: as above; settings: 10 days
In short: as §1

[7] = tested on: palmer (palmer amaranth, palmer pigweed, Amaranthus palmeri); experiment: as above; settings: 10 days
In short: as §1

[8] = tested on: ragweed (common ragweed, Ambrosia artemisiifolia); experiment: as above; settings: 10 days
In short: as §1

[9] = tested on: ryegrass, Italian (italian ryegrass, Lolium multiflorum); experiment: as above; settings: 10 days
In short: as §1

soybean (Glycine max) [10] = experiment: as above; settings: 10 days
In short: as §1

[11] = tested on: wheat (Triticum aestivum); experiment: as above; settings: 10 days
In short: as §1

[12] = tested on: barnyardgrass (Echinochloa crus-galli); experiment: Test A postemergence application, visual injury rating 0-100
In short: as §1

[13] = tested on: blackgrass (Alopecurus myosuroides); experiment: as above
In short: as §1

corn (Zea mays) [14] = experiment: as above
In short: as §1

[15] = tested on: galium (catchweed bedstraw, Galium aparine); experiment: as above
In short: as §1

[16] = tested on: green foxtail (Setaria viridis); experiment: as above
In short: as §1

[17] = tested on: horseweed (Erigeron canadensis); experiment: as above
In short: as §1

kochia (Bassia scoparia) [18] = experiment: as above
In short: as §1

[19] = tested on: oat, wild (wild oat, Avena fatua); experiment: as above
In short: as §1

[20] = tested on: palmer (palmer amaranth, palmer pigweed, Amaranthus palmeri); experiment: as above
In short: as §1

[21] = tested on: ragweed (common ragweed, Ambrosia artemisiifolia); experiment: as above
In short: as §1

[22] = tested on: ryegrass, Italian (italian ryegrass, Lolium multiflorum); experiment: as above
In short: as §1

soybean (Glycine max) [23] = experiment: as above
In short: as §1

[24] = tested on: wheat (Triticum aestivum); experiment: as above
In short: as §1

[25] = tested on: barnyardgrass (Echinochloa crusgalli); experiment: Test B flooded paddy test, visual plant response rating 0-100; settings: 250 g ai/ha, Flood, applied to paddy water, evaluated after 13 days
In short: (§2)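 Paddy-water application: test compounds went directly into water flooded 3 cm above the soil surface, with plants at 2 leaves. After a 13-day greenhouse period, responses were judged by eye relative to controls; a dash marks an untested entry.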

[26] = tested on: ducksalad (Heteranthera limosa); experiment: as above; settings: 250 g ai/ha, Flood, applied to paddy water, evaluated after 13 days
In short: as §2

rice (Oryza sativa) = experiment: as above; settings: 250 g ai/ha, Flood, applied to paddy water, evaluated after 13 days
In short: as §2

[27] = tested on: sedge, umbrella (small-flower umbrella sedge, Cyperus difformis); experiment: as above; settings: 250 g ai/ha, Flood, applied to paddy water, evaluated after 13 days
In short: as §2

[28] = 62 g ai/ha, 0 = no effect, 100 = complete control
[29] = 62 g ai/ha, postemergence, 10 days, 0 = no effect, 100 = complete control
[30] = Postemergence, 16 g ai/ha, greenhouse 10 days, 0 no effect, 100 complete control

`Cc1cc(C)cc(N2CC(C)(C(=O)NC3C=CC(C(=O)O)C3)OC2=O)c1` (stereo not drawn) [Compound 126] was tested, and the “Barnyardgrass plant response rating” value ([1]; 16 g ai/ha, 0 to 100 scale) was 10, the “Barnyardgrass plant response rating (0-100)” value [1, 28] was 90 and the “Blackgrass plant response rating” value ([2]; 16 g ai/ha, 0 to 100 scale) was 0. For the same compound, the “Blackgrass plant response rating (0-100)” value [2, 28] was 40, the “Corn plant response rating” value (corn (Zea mays) [3]; 16 g ai/ha, 0 to 100 scale) was 0 and the “Corn plant response rating (0-100)” value (corn (Zea mays) [3]; [28]) was 40. For the same compound, the “Foxtail, Green plant response rating” value ([4]; 16 g ai/ha, 0 to 100 scale) was 0, the “Foxtail, Green plant response rating (0-100)” value [4, 28] was 10 and the “Kochia plant response rating” value (kochia (Bassia scoparia) [5]) was 0. The “Oat, Wild plant response rating” value ([6]; 16 g ai/ha, 0 to 100 scale) was 0, the “Oat, Wild plant response rating (0-100)” value [6, 28] was 30 and the “Pigweed, Palmer plant response rating” value ([7]; 16 g ai/ha, 0 to 100 scale) was 20. For the same compound, the “Pigweed, Palmer plant response rating (0-100)” value [7, 28] was 50, the “Ragweed plant response rating” value ([8]; 16 g ai/ha, 0 to 100 scale) was 0 and the “Ragweed plant response rating (0-100)” value [8, 28] was 0. For the same compound, the “Ryegrass, Italian plant response rating” value ([9]; 16 g ai/ha, 0 to 100 scale) was 0, the “Ryegrass, Italian plant response rating (0-100)” value [9, 28] was 40 and the “Soybean plant response rating” value (soybean (Glycine max) [10]; 16 g ai/ha, 0 to 100 scale) was 0. The “Soybean plant response rating (0-100)” value (soybean (Glycine max) [10]; [28]) was 0, the “Wheat plant response rating” value ([11]; 16 g ai/ha, 0 to 100 scale) was 20 and the “Wheat plant response rating (0-100)” value [11, 28] was 90. The “Barnyardgrass plant response rating (0-100)” value [12, 29] was 90, the “Barnyardgrass plant response rating (0 to 100 scale)” value [12, 30] was 50 and the “Blackgrass plant response rating (0-100)” value [13, 29] was 90. The “Blackgrass plant response rating (0 to 100 scale)” value [13, 30] was 60, the “Corn plant response rating (0-100)” value (corn (Zea mays) [14]; [29]) was 100 and the “Corn plant response rating (0 to 100 scale)” value (corn (Zea mays) [14]; [30]) was 20. For the same compound, the “Galium plant response rating (0-100)” value [15, 29] was 80, the “Galium plant response rating (0 to 100 scale)” value [15, 30] was 70 and the “Foxtail, Green plant response rating (0-100)” value [16, 29] was 30. For the same compound, the “Foxtail, Green plant response rating (0 to 100 scale)” value [16, 30] was 0, the “Horseweed plant response rating (0-100)” value [17, 29] was 20 and the “Horseweed plant response rating (0 to 100 scale)” value [17, 30] was 0. The “Kochia plant response rating (0-100)” value (kochia (Bassia scoparia) [18]; [29]) was 30, the “Kochia plant response rating (0 to 100 scale)” value (kochia (Bassia scoparia) [18]; [30]) was 0 and the “Oat, Wild plant response rating (0-100)” value [19, 29] was 90. For the same compound, the “Oat, Wild plant response rating (0 to 100 scale)” value [19, 30] was 30, the “Pigweed, Palmer plant response rating (0-100)” value [20, 29] was 30 and the “Pigweed, Palmer plant response rating (0 to 100 scale)” value [20, 30] was 10. The “Ragweed plant response rating (0-100)” value [21, 29] was 30, the “Ragweed plant response rating (0 to 100 scale)” value [21, 30] was 0 and the “Ryegrass, Italian plant response rating (0-100)” value [22, 29] was 60. The “Ryegrass, Italian plant response rating (0 to 100 scale)” value [22, 30] was 30, the “Soybean plant response rating (0-100)” value (soybean (Glycine max) [23]; [29]) was 60 and the “Soybean plant response rating (0 to 100 scale)” value (soybean (Glycine max) [23]; [30]) was 0. The “Wheat plant response rating (0-100)” value [24, 29] was 90, the “Wheat plant response rating (0 to 100 scale)” value [24, 30] was 30 and the “Plant response rating, Barnyardgrass (0 to 100 scale, 0 is no effect and 100 is complete control)” value [25] was 25. For the same compound, the “Plant response rating, Ducksalad (0 to 100 scale, 0 is no effect and 100 is complete control)” value [26] was 55, the “Plant response rating, Rice (0 to 100 scale, 0 is no effect and 100 is complete control)” value (rice (Oryza sativa)) was 5 and the “Plant response rating, Sedge, Umbrella (0 to 100 scale, 0 is no effect and 100 is complete control)” value [27] was 35.

— patent US20260285850A1, “SUBSTITUTED OXAZOLIDINONES AND IMIDAZOLINONES AS HERBICIDES” (FMC CORPORATION, priority 2023, published 2026)
